The source of these data is patent US20250090681A1, “NEODEGRADER CONJUGATES” (Orum Therapeutics, Inc., priority 2021, published 2025).

In this assay the target is T1, GSPT1 (Homo sapiens, UniProt P15170+Q96SW2).
T1 construct: Whole cell lysates were prepared from MV4-11 CD33-positive AML cells; endogenous in cells; host or cells: MV4-11 (CD33-positive AML cells)
As to the kind of experiment: GSPT1 degradation by western blot in MV4-11 cells. It counts as cell-based. The note with it: FIG. 8. The text has this:
GSPT1 was probed by commercially available rabbit-anti-GSPT1 antibody (Abcam) followed by anti-rabbit HRP conjugated secondary antibody (Cell Signaling Technology) and detected by chemiluminescent substrate (ThermoFisher). PVDF membrane was then stripped and re-probed with beta-Actin-HRP conjugated antibody (Cell Signaling Technology).

T1 sequence (P15170 whole entry): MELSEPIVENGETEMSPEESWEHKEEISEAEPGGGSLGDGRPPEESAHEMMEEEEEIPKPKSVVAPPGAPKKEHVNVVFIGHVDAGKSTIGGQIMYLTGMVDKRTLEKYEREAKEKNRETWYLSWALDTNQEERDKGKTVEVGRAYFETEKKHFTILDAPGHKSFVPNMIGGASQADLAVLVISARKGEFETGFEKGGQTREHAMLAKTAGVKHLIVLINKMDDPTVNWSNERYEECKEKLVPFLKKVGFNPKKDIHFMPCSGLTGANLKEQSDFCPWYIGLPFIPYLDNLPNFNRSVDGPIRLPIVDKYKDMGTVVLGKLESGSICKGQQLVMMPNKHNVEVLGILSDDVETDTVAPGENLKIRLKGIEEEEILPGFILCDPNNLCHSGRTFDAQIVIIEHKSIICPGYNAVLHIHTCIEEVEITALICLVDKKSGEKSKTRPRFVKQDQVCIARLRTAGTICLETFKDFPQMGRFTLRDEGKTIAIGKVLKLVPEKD
T1 sequence (Q96SW2 whole entry): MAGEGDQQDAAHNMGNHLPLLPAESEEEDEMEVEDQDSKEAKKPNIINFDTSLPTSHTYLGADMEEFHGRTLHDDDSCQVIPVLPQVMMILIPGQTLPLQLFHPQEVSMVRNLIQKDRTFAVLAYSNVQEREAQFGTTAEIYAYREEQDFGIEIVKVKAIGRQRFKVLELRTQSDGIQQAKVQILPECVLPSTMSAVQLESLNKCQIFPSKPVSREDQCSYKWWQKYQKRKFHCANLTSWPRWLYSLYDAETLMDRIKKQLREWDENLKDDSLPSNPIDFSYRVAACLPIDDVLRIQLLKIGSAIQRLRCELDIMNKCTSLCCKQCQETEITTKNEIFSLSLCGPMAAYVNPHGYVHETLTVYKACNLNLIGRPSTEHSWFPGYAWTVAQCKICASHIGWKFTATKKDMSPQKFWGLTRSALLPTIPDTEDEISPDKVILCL
T1 sequence (Q16531 whole entry partner): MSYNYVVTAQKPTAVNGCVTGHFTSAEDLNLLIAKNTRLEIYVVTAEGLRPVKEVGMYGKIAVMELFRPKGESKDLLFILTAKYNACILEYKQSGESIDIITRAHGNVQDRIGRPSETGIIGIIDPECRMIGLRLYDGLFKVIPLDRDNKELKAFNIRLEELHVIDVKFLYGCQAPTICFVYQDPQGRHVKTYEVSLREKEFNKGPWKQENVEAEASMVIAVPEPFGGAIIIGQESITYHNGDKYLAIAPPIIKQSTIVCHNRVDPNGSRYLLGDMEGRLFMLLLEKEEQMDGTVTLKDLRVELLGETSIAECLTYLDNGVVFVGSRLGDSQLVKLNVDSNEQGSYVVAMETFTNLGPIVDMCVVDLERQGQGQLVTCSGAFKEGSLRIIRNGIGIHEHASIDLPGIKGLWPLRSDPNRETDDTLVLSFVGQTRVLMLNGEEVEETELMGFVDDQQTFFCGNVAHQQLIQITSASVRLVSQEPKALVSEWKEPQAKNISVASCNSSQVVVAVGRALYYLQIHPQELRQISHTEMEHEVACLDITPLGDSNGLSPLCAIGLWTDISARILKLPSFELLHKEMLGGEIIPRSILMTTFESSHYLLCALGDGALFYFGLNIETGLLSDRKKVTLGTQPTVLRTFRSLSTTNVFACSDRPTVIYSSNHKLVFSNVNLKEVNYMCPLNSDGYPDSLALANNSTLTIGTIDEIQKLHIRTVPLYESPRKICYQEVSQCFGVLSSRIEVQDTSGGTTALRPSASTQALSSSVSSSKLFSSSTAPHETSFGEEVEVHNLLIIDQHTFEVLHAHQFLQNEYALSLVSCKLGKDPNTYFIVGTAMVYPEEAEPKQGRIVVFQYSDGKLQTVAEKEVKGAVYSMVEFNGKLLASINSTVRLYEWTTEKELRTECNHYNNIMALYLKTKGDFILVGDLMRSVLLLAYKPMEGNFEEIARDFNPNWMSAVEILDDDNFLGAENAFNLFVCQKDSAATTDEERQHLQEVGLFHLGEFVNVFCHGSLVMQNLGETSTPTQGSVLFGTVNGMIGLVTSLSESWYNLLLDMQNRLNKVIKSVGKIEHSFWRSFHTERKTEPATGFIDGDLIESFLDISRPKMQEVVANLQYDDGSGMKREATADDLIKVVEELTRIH

In the case of `CNCCOCCc1ccc(NC(=O)NCc2ccc3c(c2)CN(C2CCC(=O)NC2=O)C3=O)cc1Cl` (centres unmarked) [neoDegrader P1, 1-(3-chloro-4-[2-[2-(methylamino)ethoxy]ethyl]phenyl)-3-[[2-(2,6-dioxopiperidin-3-yl)-1-oxo-3H-isoindol-5-yl]methyl]urea], the “durability of GSPT1 depletion” value (MV4-11 cells, 6, 12 and 18 hours) is “transient depletion”. Besides, the “decreases in GSPT1 levels” value (MV4-11 cells, as short as 6 hours post-dosing) was “dose-dependent decreases”.
